The record followed here is patent EP4775575A1, “COMPOUND USED AS CDK4 KINASE INHIBITOR AND USE THEREOF” (TYK Medicines, Inc., priority 2023, dated 2025).

Where only a bound is given, the exact number is not on record here.

One series addresses T1, CDK6/CyclinD3 (Homo sapiens, UniProt Q00534).
T1 construct: purchased Carna 04-107
In words: Kinase activity assay (MSA, EZ Reader) against CDK6. It is filed as biochemical. The note with it: CDK6/CyclinD3 5.00 nM, ATP 350 µM, FL-Peptide34, 10mM MgCl2.

Series [1] deals with Human breast cancer cells MCF-7. In words: Cell anti-proliferation assay (MTT), MCF-7. The format is cell-based. The settings on record: Homo sapiens, MCF7, 120 h, MCF-7 cells, incubated for 5 days. On the procedure:
(§1) Human breast cancer cells MCF-7, human ovarian cancer cells A2780, human mantle cell lymphoma cells JEKO-1. DMEM medium (Bio-Channel), DMSO (dimethyl sulfoxide), MTT (thiazolyl blue), 0.25% EDTA-Trypsin (trypsin digestive solution), 1×PBS (phosphate buffered saline, pH 7.2), 96-well plate (Corning), fetal bovine serum (FBS), 10,000 U/mL penicillin-G/streptomycin, high-speed refrigerated centrifuge (EPPENDORF 5810R), and microplate reader (Tecan Spark).
(§2) • A) Tumor cells were cultured in DMEM (high glucose, containing 10% FBS and 100 U/mL penicillin-G/streptomycin) at 37 °C, 5% CO2 and saturated humidity until 80-90% confluence. • B) The medium in the 10 cm culture dish was removed. • C) Cells were rinsed once with 10 mL of 1×PBS. • D) 4 mL of 0.25% EDTA-Trypsin was added, and the cells were digested in a 37 °C, 5% CO2 incubator for 5 minutes. The mixture was transferred to a 15 mL centrifuge tube, centrifuged at 200 g for 5 minutes, and the supernatant was discarded to obtain cell pellet. • E) The cells were resuspended in 4 mL of DMEM medium, counted, and adjusted to 50,000 cells/mL. • F) 100 µL of cell suspension was added to each well of a 96-well plate, and the plate was incubated overnight at 37 °C in a 5% CO2 incubator.
(§3) • A) Gradient dilution solutions of the test compounds were prepared: the test compound was prepared into a 1 mM stock solution. Then 1.5 µL of the stock solution was dissolved in 1.5 mL of DMSO-free medium, followed by 3-fold serial gradient dilution with medium containing 0.1% DMSO to give 9 concentrations.
(§4) • A) The cell culture plate was taken out, and 10 µL of 5 mg/mL MTT was added in a biological safety cabinet; • B) The plate was returned to the incubator and incubated for another 3 hours; • C) The cell culture plate was taken out and the medium was removed, 100 µL of isopropanol (containing 0.4 mM HCl, 0.1% NP-40) was added, and the plate was shaken at room temperature for 30 minutes; • D) The absorbance at 570 nm was measured using a TECAN microplate reader.

The test system of series [2] is human ovarian cancer cells A2780. Kind of series: Cell anti-proliferation assay (MTT), A2780. The format is cell-based. The note with it: Homo sapiens, 120 h, incubated for 5 days. The method, then:
as §1, §2, §3, §4

Series [3] concerns human mantle cell lymphoma cells JEKO-1. Kind of series: Cell anti-proliferation assay (MTT), JEKO-1. It is filed as cell-based. The settings on record: Homo sapiens, 120 h, JEKO-1 cells, incubated for 5 days. On the procedure: as §1, §2, §3, §4
Another series concerns the target CDK4/CycD1 (Homo sapiens, UniProt P11802). In words: Kinase activity assay (MSA, EZ Reader) against CDK4.
Series [4] can be described thus: Preclinical pharmacokinetic study in rats. The settings on record: male SD rats, oral gavage (p.o.) 10 mg/kg, plasma. The format is in vivo, Sprague-Dawley (SD) rats. On the procedure: Healthy adult Sprague-Dawley (SD) rats, male, 6-8 weeks old, weighing 200-300 g. EDTA-Na2 anticoagulant. Analytical balance, animal weighing scale, magnetic stirrer, refrigerated centrifuge, single-channel manual pipette, etc. About 10 mg of the test sample was precisely weighed, dissolved in a calculated volume of 5% DMSO, followed by addition of 10% solutol HS-15 and 85% normal saline. The mixture was sonicated and vortexed to homogeneity to obtain a solution with a concentration of 1 mg/mL. The solution was freshly prepared before use. Animals were housed in rat cages and fasted overnight (no less than 10 h) before the test, with free access to water. On the day of the test, animals were weighed and marked on the tail. Blank blood samples were collected before administration. The blood was collected via tail vein. • Route of administration: oral gavage (p.o.) • Dose: 10 mg/kg • Dosing volume: 10 mL/kg • Procedure: The rat was held upright with the left hand wearing bite-resistant glove. A 16-gauge gavage needle was inserted through the mouth into the esophagus. The needle was advanced gently without obvious resistance, and the drug solution was injected into the stomach. Whole blood (0.1 mL) were collected from each test animal before administration and at 0.5 […], and 24 h after administration into EDTA-Na2 anticoagulant tubes. The tubes were inverted 3-4 times for mixing, then centrifuged at 10,000 g for 5 min at 4 °C to separate plasma. Plasma samples were stored at -80 °C until analysis. Blood was collected via tail vein. […] The mixture was vortexed for 2 min and centrifuged at 10,000 g for 10 min at 4 °C. Processing of unknown plasma samples: 25 μL of drug-containing rat plasma was transferred, followed by addition of 25 μL of methanol and 200 μL of internal standard solution. The mixture was vortexed for 2 min and centrifuged at 10,000 g for 10 min at 4 °C. The supernatant was collected for LC-MS/MS analysis. A quantitative method for the determination of the test compound was established using a Shimadzu liquid chromatography system coupled with Triple Quad^TM 6500+ AB mass spectrometer. The concentration of the parent drug in plasma was determined. The plasma concentration-time curve was plotted, and the main pharmacokinetic parameters were calculated using a non-compartmental model in winnonlin Phoenix software.

T1 sequence (Q00534 whole entry): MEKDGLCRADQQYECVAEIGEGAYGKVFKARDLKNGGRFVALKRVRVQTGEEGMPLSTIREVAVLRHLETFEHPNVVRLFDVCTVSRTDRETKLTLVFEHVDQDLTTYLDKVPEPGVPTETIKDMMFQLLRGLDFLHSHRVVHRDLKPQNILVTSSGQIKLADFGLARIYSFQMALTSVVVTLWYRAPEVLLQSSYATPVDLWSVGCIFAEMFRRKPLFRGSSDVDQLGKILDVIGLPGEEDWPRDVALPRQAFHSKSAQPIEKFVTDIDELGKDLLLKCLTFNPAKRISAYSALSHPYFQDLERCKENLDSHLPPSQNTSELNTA
T1 sequence (P30281 whole entry partner): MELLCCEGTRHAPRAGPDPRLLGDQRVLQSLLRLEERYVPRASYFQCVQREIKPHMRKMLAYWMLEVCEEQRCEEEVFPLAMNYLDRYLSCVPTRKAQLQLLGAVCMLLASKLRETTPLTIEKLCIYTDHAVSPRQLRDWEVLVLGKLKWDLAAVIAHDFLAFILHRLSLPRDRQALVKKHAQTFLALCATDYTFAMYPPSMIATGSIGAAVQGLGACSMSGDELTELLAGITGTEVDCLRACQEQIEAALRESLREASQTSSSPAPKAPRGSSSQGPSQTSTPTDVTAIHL
Sequence of CDK4/CycD1 (P11802 whole entry): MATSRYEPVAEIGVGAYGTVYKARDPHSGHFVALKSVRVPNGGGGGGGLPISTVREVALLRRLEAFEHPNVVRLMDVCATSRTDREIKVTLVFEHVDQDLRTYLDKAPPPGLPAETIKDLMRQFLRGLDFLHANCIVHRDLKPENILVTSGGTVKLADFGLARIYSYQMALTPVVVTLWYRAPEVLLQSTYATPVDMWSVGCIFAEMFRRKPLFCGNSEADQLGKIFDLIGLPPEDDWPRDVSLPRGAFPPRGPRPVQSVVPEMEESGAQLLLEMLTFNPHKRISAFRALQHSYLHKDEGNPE

By IC50 is commonly meant the concentration that inhibits the measured activity by half. Regarding `CC1CCN(C)c2nc3c(F)cc(-c4nc(N[C@@H]5CCOC[C@H]5O)ncc4Cl)cc3n21` (mixture of isomers) [TB-44, (3S,4R)-4-((5-chloro-4-(9-fluoro-1,4-dimethyl-1,2,3,4-tetrahydrobenzo[4,5]imidazo[1,2-a]pyrimidin-7-yl)pyrimidin-2-yl)amino)tetrahydro-2H-pyran-3-ol], the IC50 against CDK6/CyclinD3 is 90.2 nM; in series [1], ≤ 500 nM; in series [2], ≤ 500 nM; in series [3], ≤ 500 nM.
`CC(C)n1c(N(C)C)nc2c(F)cc(-c3nc(N[C@H]4CC[C@@H](NS(C)(=O)=O)CC4)ncc3Cl)cc21` [TB-4] registered an IC50 on CDK4/CycD1 of 27.1 nM.
`CNS(=O)(=O)c1ccc(Nc2ncc(Cl)c(-c3cc(F)c4nc(N(C)C)n(C(C)C)c4c3)n2)cc1` [TB-20, 4-((5-chloro-4-(2-(dimethylamino)-4-fluoro-1-isopropyl-1H-benzo[d]imidazol-6-yl)pyrimidin-2-yl)amino)-N-methylbenzenesulfonamide]: the 50% inhibitory concentration (IC50) against CDK6/CyclinD3 is 141 nM; at CDK4/CycD1, 44.6 nM.
In turn, `CC(C)n1c(N2CCCC2=O)nc2c(F)cc(-c3nc(N[C@@H]4CCOC[C@H]4O)ncc3Cl)cc21` [TB-23] displayed an IC50 at CDK4/CycD1 of 185 nM.
Regarding `CN1CCCn2c1nc1c(F)cc(-c3nc(N[C@@H]4CCOC[C@H]4O)ncc3Cl)cc12` [TB-40], the IC50 was 229 nM on CDK6/CyclinD3, ≤ 500 nM in series [1], ≤ 500 nM in series [2] and ≤ 500 nM in series [3].
For the compound `CN1CCCn2c1nc1c(F)cc(-c3nc(N[C@@H]4CCOC[C@H]4O)ncc3F)cc12` [TB-42, (3S,4R)-4-((5-fluoro-4-(9-fluoro-1-methyl-1,2,3,4-tetrahydrobenzo[4,5]imidazo[1,2-a]pyrimidin-7-yl)pyrimidin-2-yl)amino)tetrahydro-2H-pyran-3-ol], the IC50 is 195 nM against CDK6/CyclinD3, ≤ 500 nM in series [1], ≤ 500 nM in series [2] and ≤ 500 nM in series [3].
Turning to `CN1CCn2c1nc1c(F)cc(-c3nc(N[C@@H]4CCOC[C@H]4O)ncc3Cl)cc12` [TB-45, (3S,4R)-4-((5-chloro-4-(8-fluoro-1-methyl-2,3-dihydro-1H-benzo[d]imidazo[1,2-a]imidazol-6-yl)pyrimidin-2-yl)amino)tetrahydro-2H-pyran-3-ol], the IC50 is 241 nM against CDK6/CyclinD3, ≤ 500 nM in series [1], ≤ 500 nM in series [2] and ≤ 500 nM in series [3].
Consider `CN1C(=O)CCn2c1nc1c(F)cc(-c3nc(N[C@@H]4CCOC[C@H]4O)ncc3Cl)cc12` [TB-46, 7-(5-chloro-2-(((3S,4R)-3-hydroxytetra hydro-2H-pyran-4-yl)amino)pyrimidin-4-yl)-9-fluoro-1-methyl-3,4-dihydrobenzo[4,5]imidazo[1,2-a]pyrimidin-2(1H)-one], for which the IC50 on CDK6/CyclinD3 was 244 nM; in series [1], ≤ 500 nM; in series [2], ≤ 500 nM; in series [3], ≤ 500 nM.
With `CN1CCn2c1nc1c(F)cc(-c3nc(NC4CCN(S(C)(=O)=O)CC4)ncc3Cl)cc12` [TB-52, 5-chloro-4-(8-fluoro-1-methyl-2,3-dihydro-1H-benzo[d]imidazo[1,2-a]imidazol-6-yl)-N-(1-(methylsulfonyl)piperidin-4-yl)pyrimidin-2-amine], the half-maximal inhibitory concentration (IC50) at CDK6/CyclinD3 is 40.6 nM; in series [1], ≤ 500 nM; in series [2], ≤ 500 nM; in series [3], ≤ 500 nM.
For the compound `CN1CCCn2c1nc1c(F)cc(-c3nc(Nc4ccncc4)ncc3Cl)cc12` [TB-90], the IC50 was 95.2 nM on CDK6/CyclinD3, 500 to 2000 nM in series [1], ≤ 500 nM in series [2] and ≤ 500 nM in series [3].
In the case of `C[C@@H]1CCN(C)c2nc3c(F)cc(-c4nc(N[C@@H]5CCOC[C@H]5O)ncc4Cl)cc3n21` [TB-91, (3S,4R)-4-((5-chloro-4-((R)-9-fluoro-1,4-dimethyl-1,2,3,4-tetrahydrobenzo[4,5]imidazo[1,2-a]pyrimidin-7-yl)pyrimidin-2-yl)amino)tetrahydro-2H-pyran-3-ol], the IC50 at CDK6/CyclinD3 is 68.4 nM; in series [1] it was ≤ 500 nM; in series [2], ≤ 500 nM; in series [3] it was ≤ 500 nM.
The AUC(0-t) is the area under the concentration-time curve up to a stated or last time point. The low end stands for less exposure, the high end for more exposure. What is called Cmax is the peak of the concentration-time curve. As usually defined, the Tmax is the time at which the peak concentration occurs. On to `C[C@H]1CCN(C)c2nc3c(F)cc(-c4nc(N[C@@H]5CCOC[C@H]5O)ncc4Cl)cc3n21` [TB-92, (3S,4R)-4-((5-chloro-4-((S)-9-fluoro-1,4-dimethyl-1,2,3,4-tetrahydrobenzo[4,5]imidazo[1,2-a]pyrimidin-7-yl)pyrimidin-2-yl)amino)tetrahydro-2H-pyran-3-ol], for which the IC50 is 123 nM on CDK6/CyclinD3, ≤ 500 nM in series [1], ≤ 500 nM in series [2] and ≤ 500 nM in series [3]. The same compound came in with an AUC(0-t) in series [4] (Sprague-Dawley, rat) of 5020 ng·h/mL. In series [4] (Sprague-Dawley, rat), the Cmax stood at 1940 ng/mL. Also, the Tmax in series [4] (Sprague-Dawley, rat) is 30 min. Besides, in series [4], the “HL_” value was 1.21 h.
Turning to `COCc1cc(Nc2ncc(Cl)c(-c3cc(F)c4nc5n(c4c3)CCCN5C)n2)ccn1` [TB-130, 5-chloro-4-(9-fluoro-1-methyl-1,2,3,4-tetrahydrobenzo[4,5]imidazo[1,2-a]pyrimidin-7-yl)-N-(2-(methoxymethyl)pyridin-4-yl)pyrimidin-2-amine], the 50% inhibitory concentration (IC50) against CDK6/CyclinD3 is 155 nM; in series [1], ≤ 500 nM; in series [2], ≤ 500 nM; in series [3], ≤ 500 nM.
With `CN1CCCn2c1nc1c(F)cc(-c3nc(NC4CCOCC4)ncc3Cl)cc12` [TB-132, 5-chloro-4-(9-fluoro-1-methyl-1,2,3,4-tetrahydrobenzo[4,5]imidazo[1,2-a]pyrimidin-7-yl)-N-(tetrahydro-2H-pyran-4-yl)pyrimidin-2-amine], the half-maximal inhibitory concentration (IC50) was 246 nM at CDK6/CyclinD3, 500 to 2000 nM in series [1], ≤ 500 nM in series [2] and ≤ 500 nM in series [3].
For `CCS(=O)(=O)N1CCC(Nc2ncc(Cl)c(-c3cc(F)c4nc5n(c4c3)CCCN5C)n2)CC1` [TB-143, 5-chloro-N-(1-(ethylsulfonyl)piperidin-4-yl)-4-(9-fluoro-1-methyl-1,2,3,4-tetrahydrobenzo[4,5]imidazo[1,2-a]pyrimidin-7-yl)pyrimidin-2-amine], the IC50 against CDK6/CyclinD3 was 58.3 nM; in series [1], ≤ 500 nM; in series [2], ≤ 500 nM; in series [3] it was ≤ 500 nM.
For the compound `CNS(=O)(=O)N1CCC(Nc2ncc(Cl)c(-c3cc(F)c4nc5n(c4c3)CCCN5C)n2)CC1` [TB-144, 4-((5-chloro-4-(9-fluoro-1-methyl-1,2,3,4-tetrahydrobenzo[4,5]imidazo[1,2-a]pyrimidin-7-yl)pyrimidin-2-yl)amino)-N-methylpiperidine-1-sulfonamide], the IC50 was 126 nM on CDK6/CyclinD3, ≤ 500 nM in series [1], ≤ 500 nM in series [2] and ≤ 500 nM in series [3].
